Measurements taken from patent US9980948B2, “Azaindole derivative having AMPK-activating activity” (Shionogi & Co., Ltd., priority 2014, dated 2018).

Biological target: T1, Human AMPK α2β2γ1 (Homo sapiens, UniProt O43741+P54646)
T1 construct: The full length cDNAs of human AMPK β2 (NM_005399.3) and human AMPK α2 (NM_006252.3); The full length cDNAs of human AMPK β2 (NM_005399.3); the full length cDNA of human AMPK γ1 (NM_002733.3) had been inserted into pET28b(+); 6xHis (N); made in house; host or cells: Escherichia coli BL21 CodonPlus (DE3)-RTL (AMPK); BL21 Star (DE3) (CaMKKβ)
Test: Test Example 2: evaluation of an activator for AMP-activated protein kinase (AMPK), human AMPK α2β2γ1 phosphorylated with CaMKK2, FL-Peptide 7 mobility shift
Assay type: biochemical
Details: for EC150 (compound concentration showing 150% relative to the control (100%)): human AMPK α2β2γ1, 0.2 mM ATP final, 25° C., 2 hours; for Emax: read-out: Emax (maximum rate of increase in activity within the measurement range)
Protocol: The full length cDNAs of human AMPK β2 (NM_005399.3) and human AMPK α2 (NM_006252.3) were inserted into the MCS1 and MCS2 of the pETDuet-1 vector to prepare a human AMPK β2 and human AMPK α2 (6× His tag at the 5′ terminus) expressing plasmid. The plasmid was cotransfected with an expression plasmid, in which the full length cDNA of human AMPK γ1 (NM_002733.3) had been inserted into pET28b(+), into BL21 CodonPlus (DE3)-RTL to obtain an expression strain. The expression strain was cultured in TB medium, followed by induction with 0.5 mM IPTG, and cultured at 25° C. for 3 hours and then harvested.
An expression vector, in which the full length cDNA of human CAMKK β (NM_172226.1) had been inserted into pGEX-6P-3, was transfected into BL21 Star (DE3). The expression strain was cultured in TB medium, followed by induction with 0.5 mM IPTG, and cultured at 25° C. for 3 hours and then harvested.
Thus, phosphorylation treatment was carried out as pretreatment.
Human AMPK α2β2γ1 in an amount to give a conversion rate of approximately 10% by reaction for 2 hours, and CaMKK2 in an amount capable of sufficiently imparting activity to AMPK for one hour were mixed in a buffer solution consisting of a 50 mM HEPES-NaOH buffer solution (pH 7.0), 100 mM NaCl, 5 mM magnesium chloride, 0.1% bovine serum albumin, 0.2 mM sodium orthovanadate(V), 1 mM ethylene glycol-bis(2-aminoethyl ether)-N,N,N′,N′-tetraacetic acid (EGTA), 5 mM disodium β-glycerophosphate, 1 mM dithiothreitol and 0.2 mM ATP, and the obtained liquid was left to stand at 25° C. for 1 to 1.5 hours to sufficiently phosphorylate AMPK.
The obtained liquid was left to stand for 10 minutes.
The obtained liquid was allowed to react at 25° C. for 2 hours, and 10 μl of 20 mM EDTA was then added thereto to stop the reaction.
To detect phosphorylated fluorescent substrates, the reaction liquid was applied to a measuring device, LabChip EZ Reader II manufactured by Caliper Life Science, Inc., for detecting fluorescence by using differences in mobility due to differences in charge. The setting conditions for the device were pressure, −1.5 PSI; upstream voltage, −2250 V; downstream voltage, −400 V; post sample buffer sip time, 40 seconds; final delay, 120 seconds; and peak order, Product First.
A conversion rate was calculated from the peak heights of the resulting substrate and product. The conversion rate when not containing a compound was used as a control, and a concentration dependent curve was made by plotting the rate of increase in activity to the control at each concentration of a compound.

[1] = human AMPK α2β2γ1, relative to control (100%)

T1 sequence (P54646 whole entry): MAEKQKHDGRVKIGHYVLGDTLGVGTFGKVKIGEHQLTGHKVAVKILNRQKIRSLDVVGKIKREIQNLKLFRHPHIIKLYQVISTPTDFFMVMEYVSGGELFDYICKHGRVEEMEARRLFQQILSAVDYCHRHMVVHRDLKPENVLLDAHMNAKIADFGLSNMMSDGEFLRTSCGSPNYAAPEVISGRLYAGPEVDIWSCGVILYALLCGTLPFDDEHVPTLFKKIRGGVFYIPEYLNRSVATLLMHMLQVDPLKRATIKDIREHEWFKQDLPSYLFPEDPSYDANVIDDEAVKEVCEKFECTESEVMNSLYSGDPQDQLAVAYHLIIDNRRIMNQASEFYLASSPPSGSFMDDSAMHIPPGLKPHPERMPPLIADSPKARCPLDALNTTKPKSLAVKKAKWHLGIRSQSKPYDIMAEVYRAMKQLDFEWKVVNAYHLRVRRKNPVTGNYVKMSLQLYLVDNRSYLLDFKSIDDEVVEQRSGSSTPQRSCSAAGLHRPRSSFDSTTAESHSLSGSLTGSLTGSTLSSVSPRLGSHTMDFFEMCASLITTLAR
T1 sequence (O43741 whole entry): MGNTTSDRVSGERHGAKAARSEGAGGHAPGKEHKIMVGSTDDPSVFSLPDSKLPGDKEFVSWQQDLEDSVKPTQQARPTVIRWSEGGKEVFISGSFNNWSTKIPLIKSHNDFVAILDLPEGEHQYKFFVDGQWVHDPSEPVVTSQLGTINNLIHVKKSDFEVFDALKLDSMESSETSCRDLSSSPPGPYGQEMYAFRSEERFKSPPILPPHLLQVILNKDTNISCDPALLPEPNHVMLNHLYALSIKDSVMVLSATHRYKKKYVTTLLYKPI
T1 sequence (P54619 whole entry partner): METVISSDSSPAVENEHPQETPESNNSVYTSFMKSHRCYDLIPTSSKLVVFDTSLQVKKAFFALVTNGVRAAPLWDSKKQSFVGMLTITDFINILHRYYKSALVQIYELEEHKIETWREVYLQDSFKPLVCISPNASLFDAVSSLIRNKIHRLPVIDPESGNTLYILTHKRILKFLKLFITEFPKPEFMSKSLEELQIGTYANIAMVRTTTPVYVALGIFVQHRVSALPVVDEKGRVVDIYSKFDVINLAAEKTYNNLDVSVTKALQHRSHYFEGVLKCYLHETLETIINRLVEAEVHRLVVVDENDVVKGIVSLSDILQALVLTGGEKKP

| SMILES | EC150 (compound concentration showing 150% relative to the control (100%)) | Emax [1] | Emax (maximum rate of increase in activity within the measurement range) [1] |
| --- | --- | --- | --- |
| Cn1cc(-c2ccc(-c3nc4c(C#N)c(O[C@@H]5CO[C@H]6[C@@H]5OC[C@H]6O)[nH]c4cc3Cl)cc2)cn1 [Compound I-2-11] | 40 nM | 867% |  |
| N#Cc1cc2[nH]c(O[C@@H]3CO[C@H]4[C@@H]3OC[C@H]4O)cc2nc1-c1ccc(C2=CCOCC2)cc1 [Compound I-2-19] | 1.6 nM | 916% |  |
| Cn1ccc2cc(-c3nc4c(C#N)c(O[C@@H]5CO[C@H]6[C@@H]5OC[C@H]6O)[nH]c4cc3Cl)ccc21 [Compound I-2-28] | 57 nM | 446% |  |
| O=C(CO)N1CC=C(c2ccc(-c3nc4cc(O[C@@H]5CO[C@H](CO)C5)[nH]c4cc3F)cc2)CC1 [Compound I-2-33] | 2.5 nM | 511% |  |
| O[C@@H]1CO[C@H]2[C@@H]1OC[C@H]2Oc1cc2nc(-c3ccc(C4(O)CCC4)cc3)c(F)cc2[nH]1 [Compound I-2-34] | 20 nM | 495% |  |
| N#Cc1cc2[nH]c(O[C@@H]3CO[C@H]4[C@@H]3OC[C@H]4O)cc2nc1-c1ccc(N2CCOCC2)cc1F [Compound I-2-42] | 48 nM | 481% |  |
| N#Cc1cc2[nH]c(O[C@@H]3CO[C@H]4[C@@H]3OC[C@H]4O)cc2nc1-c1ccc(-c2ccccc2)cc1 [Compound I-2-45] | 19 nM | 492% |  |
| N#Cc1c(O[C@@H]2CO[C@H]3[C@@H]2OC[C@H]3O)[nH]c2cc(Cl)c(-c3ccc(-c4cnn(CCO)c4)cc3)nc12 [Compound I-2-46] | 77 nM | 510% |  |
| O[C@@H]1CO[C@H]2[C@@H]1OC[C@H]2Oc1cc2nc(-c3ccc(C4CCCCO4)cc3)c(F)cc2[nH]1 (some centres unmarked) [Compound I-2-57] | 10 nM | 484% |  |
| O[C@@H]1CO[C@H]2[C@@H]1OC[C@H]2Oc1cc2nc(-c3ccc([C@@H]4C[C@@H](O)[C@@H](O)CO4)cc3)c(Cl)cc2[nH]1 [Compound I-2-61-a] | 6.4 nM | 442% |  |
| O[C@@H]1CO[C@H]2[C@@H]1OC[C@H]2Oc1cc2nc(-c3ccc([C@H]4C[C@H](O)[C@H](O)CO4)cc3)c(F)cc2[nH]1 [Compound I-2-61-b] | 6.4 nM | 442% |  |
| O[C@@H]1CO[C@H]2[C@@H]1OC[C@H]2Oc1cc2nc(-c3ccc(C4CCCO4)cc3)c(F)cc2[nH]1 (some centres unmarked) [Compound I-2-68] | 26 nM | 382% |  |
| Cn1ncc2cc(-c3nc4cc(O[C@@H]5CO[C@H]6[C@@H]5OC[C@H]6O)[nH]c4cc3F)ccc21 [Compound I-2-69] | 58 nM | 521% |  |
| Cn1c(-c2nc3cc(O[C@@H]4CO[C@H]5[C@@H]4OC[C@H]5O)[nH]c3cc2F)cc2ccccc21 [Compound I-2-70] | 38 nM | 511% |  |
| COc1ccc(-c2nc3cc(O[C@@H]4CO[C@H]5[C@@H]4OC[C@H]5O)[nH]c3cc2F)cc1 [Compound I-2-71] | 89 nM | 446% |  |
| COc1nc(N2CC[C@@H](O)C2)ccc1-c1nc2cc(O[C@@H]3CO[C@H]4[C@@H]3OC[C@H]4O)[nH]c2cc1F [Compound I-2-78] | 7.1 nM | 490% |  |
| CS(=O)(=O)N1C2C=C(c3ccc(-c4nc5cc(O[C@@H]6CO[C@H]7[C@@H]6OC[C@H]7O)[nH]c5cc4F)cc3)CC1CC2 (some centres unmarked) [Compound I-3-4] | 30 nM |  | 568% |
| O[C@@H]1CO[C@H]2[C@@H]1OC[C@H]2Oc1cc2nc(-c3ccc(OCCCN4CCOCC4)cc3)c(F)cc2[nH]1 [Compound I-3-6] | 74 nM | 475% |  |
| CC(=O)Nc1nc(-c2ccc(-c3nc4cc(O[C@@H]5CO[C@H]6[C@@H]5OC[C@H]6O)[nH]c4cc3F)cc2)cs1 [Compound I-3-10] | 7.9 nM | 391% |  |
| CS(C)(=O)=Nc1ccc(-c2ccc(-c3nc4cc(O[C@@H]5CO[C@H]6[C@@H]5OC[C@H]6O)[nH]c4cc3F)cc2)nc1 [Compound I-3-12] | 4.2 nM | 396% |  |
| O[C@@H]1CO[C@H]2[C@@H]1OC[C@H]2Oc1cc2nc(-c3ccc4scnc4c3)c(F)cc2[nH]1 [Compound I-3-14] | 150 nM | 430% |  |
| N#Cc1cc2[nH]c(O[C@@H]3CO[C@H]4[C@@H]3OC[C@H]4O)cc2nc1NC1CCc2cc(F)cc(F)c21 (some centres unmarked) [Compound I-3-17] | 40 nM | 492% |  |
| O[C@@H]1CO[C@H]2[C@@H]1OC[C@H]2Oc1cc2nc(NC3CCc4cc(F)cc(F)c43)c(C(F)(F)F)cc2[nH]1 (some centres unmarked) [Compound I-3-19] | 120 nM | 543% |  |
| O[C@@H]1CO[C@H]2[C@@H]1OC[C@H]2Oc1cc2nc(-c3ccc(-c4ccsc4)cc3)c(F)cc2[nH]1 [Compound I-3-23] | 5 nM | 510% |  |
| O[C@@H]1CO[C@H]2[C@@H]1OC[C@H]2Oc1cc2nc(-c3ccsc3)c(F)cc2[nH]1 [Compound I-3-24] | 340 nM | 315% |  |
| Cn1cc(-c2ccc(-c3nc4cc(O[C@@H]5CO[C@H]6[C@@H]5OC[C@H]6O)[nH]c4cc3F)cc2)cn1 [Compound I-3-25] | 6.6 nM | 493% |  |
| COc1nc(N2CCCC2)ccc1-c1nc2cc(O[C@@H]3CO[C@H]4[C@@H]3OC[C@H]4O)[nH]c2cc1F [Compound I-3-27] | 12 nM | 633% |  |
| COc1cc(F)c(-c2nc3cc(O[C@@H]4CO[C@H]5[C@@H]4OC[C@H]5O)[nH]c3cc2F)c(F)c1 [Compound I-3-28] | 87 nM | 430% |  |
